Like-named read-outs stand apart in the source and are kept apart here.
Legend:
PR [1] = target: T1, PR (Homo sapiens, UniProt P06401); assay: PR competitive binding assay; settings: Cheng-Prusoff
T1 sequence (P06401 1-933): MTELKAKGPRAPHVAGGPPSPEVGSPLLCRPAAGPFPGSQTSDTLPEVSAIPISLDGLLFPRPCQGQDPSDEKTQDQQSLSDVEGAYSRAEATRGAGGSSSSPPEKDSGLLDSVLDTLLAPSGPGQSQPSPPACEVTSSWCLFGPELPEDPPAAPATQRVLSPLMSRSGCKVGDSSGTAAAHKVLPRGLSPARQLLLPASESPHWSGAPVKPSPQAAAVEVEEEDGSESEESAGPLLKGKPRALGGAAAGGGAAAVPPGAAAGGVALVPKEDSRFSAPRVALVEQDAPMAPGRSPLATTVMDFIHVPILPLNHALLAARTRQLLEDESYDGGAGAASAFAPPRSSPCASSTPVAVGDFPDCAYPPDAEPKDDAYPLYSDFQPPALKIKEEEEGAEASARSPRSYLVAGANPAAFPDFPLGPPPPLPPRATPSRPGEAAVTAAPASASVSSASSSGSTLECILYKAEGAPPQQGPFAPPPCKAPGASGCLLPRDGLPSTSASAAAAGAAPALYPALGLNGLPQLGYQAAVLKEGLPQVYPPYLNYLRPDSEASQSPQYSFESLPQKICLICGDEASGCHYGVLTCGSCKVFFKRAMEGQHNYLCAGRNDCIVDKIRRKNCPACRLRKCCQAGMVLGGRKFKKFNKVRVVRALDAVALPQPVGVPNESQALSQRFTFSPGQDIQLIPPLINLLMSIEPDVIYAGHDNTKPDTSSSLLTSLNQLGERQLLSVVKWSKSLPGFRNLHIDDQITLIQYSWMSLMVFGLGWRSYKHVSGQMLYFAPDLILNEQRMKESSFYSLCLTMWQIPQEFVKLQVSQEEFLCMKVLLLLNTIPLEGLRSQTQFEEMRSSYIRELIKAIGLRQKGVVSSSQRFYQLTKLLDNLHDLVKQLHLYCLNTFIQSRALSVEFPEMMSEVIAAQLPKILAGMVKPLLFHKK
Protocol: After correcting for non-specific binding, IC50 values were determined. […] The IC50 value was determined graphically from a log-logit plot of the data. The Ki values were determined by application of the Cheng-Prusoff equivuation to the IC50 values, the labeled ligand concentration and the Kd of the labeled ligand.

PR [2] = target: T1, PR; assay: Co-transfection assay, PR agonist activity (CV-1 cells); format: cell-based; parameters: expressed in transfected cells; host or cells: CV-1 cells; settings: for EC50: agonist potency EC50; for PR Agonist CV-1 Cells Efficacy (%): percent maximal response relative to reference agonist progesterone
PR [3] = target: T1, PR; assay: Co-transfection assay, PR antagonist activity (CV-1 cells, in presence of progesterone); format: cell-based; parameters: expressed in transfected cells; host or cells: CV-1 cells; settings: for PR Antagonist CV-1 Cells Efficacy (%): percent maximal inhibition, progesterone at its EC50
human AR [4] = target: T2, human AR (Homo sapiens, UniProt P10275); assay: Co-transfection assay, AR agonist activity (CV-1 cells, MTV-LUC reporter); format: cell-based; settings: CV-1 cells; for EC50: agonist potency EC50
T2 sequence (P10275 1-920): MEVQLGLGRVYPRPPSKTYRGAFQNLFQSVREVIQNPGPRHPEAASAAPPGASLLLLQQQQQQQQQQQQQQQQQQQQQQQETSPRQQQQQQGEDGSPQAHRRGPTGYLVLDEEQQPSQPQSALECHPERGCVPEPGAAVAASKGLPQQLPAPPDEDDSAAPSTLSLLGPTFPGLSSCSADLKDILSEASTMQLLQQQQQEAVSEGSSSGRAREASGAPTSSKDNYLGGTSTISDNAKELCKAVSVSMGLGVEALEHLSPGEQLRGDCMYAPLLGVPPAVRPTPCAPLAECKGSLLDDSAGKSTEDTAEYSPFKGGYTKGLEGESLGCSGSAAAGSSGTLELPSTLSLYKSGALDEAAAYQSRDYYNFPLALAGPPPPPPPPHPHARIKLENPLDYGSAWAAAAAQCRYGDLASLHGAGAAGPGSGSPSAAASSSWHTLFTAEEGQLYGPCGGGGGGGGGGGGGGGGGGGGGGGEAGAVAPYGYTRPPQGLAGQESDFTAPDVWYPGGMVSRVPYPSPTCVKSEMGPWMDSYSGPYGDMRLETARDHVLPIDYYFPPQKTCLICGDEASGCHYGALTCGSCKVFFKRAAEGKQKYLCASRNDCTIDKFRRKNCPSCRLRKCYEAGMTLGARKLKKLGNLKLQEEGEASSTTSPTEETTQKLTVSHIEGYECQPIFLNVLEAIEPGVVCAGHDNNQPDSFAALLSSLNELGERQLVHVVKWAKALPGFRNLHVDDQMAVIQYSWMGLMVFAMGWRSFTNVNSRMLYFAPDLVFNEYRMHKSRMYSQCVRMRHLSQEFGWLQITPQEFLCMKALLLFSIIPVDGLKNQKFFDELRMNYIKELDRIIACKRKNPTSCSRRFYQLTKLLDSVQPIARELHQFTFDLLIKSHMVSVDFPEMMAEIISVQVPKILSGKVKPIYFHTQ

human AR [5] = target: T2, human AR; assay: Co-transfection assay, AR antagonist activity (CV-1 cells, in presence of DHT); format: cell-based; settings: for AR Antagonist CV-1 Cells Efficacy (%): percent maximal inhibition, DHT at its EC50; for IC50: read-out: AR Antagonist CV-1 Cells Potency
human AR [6] = target: T2, human AR; assay: AR whole cell competitive binding assay (COS-1 cells, 3H-DHT); settings: 1 nM 3H-DHT, Cheng-Prusoff
[7] = read-out: PR Antagonist CV-1 Cells Potency

| SMILES | melting point [°C] | Ki (PR [1]) [nM] | EC50 (PR [2]) [nM] | PR Agonist CV-1 Cells Efficacy (%) (PR [2]) | IC50 (PR [3]) [nM] | PR Antagonist CV-1 Cells Efficacy (%) (PR [3]) | EC50 (human AR [4]) [nM] | AR Antagonist CV-1 Cells Efficacy (%) (human AR [5]) | IC50 (human AR [5]) [nM] | Ki (human AR [6]) [nM] | IC50 (PR [3]; [7]) [nM] | AR Agonist CV-1 Cells Efficacy (%) (human AR [4]; percent maximal response relative to reference agonist DHT) |
| --- | --- | --- | --- | --- | --- | --- | --- | --- | --- | --- | --- | --- |
| CC(C)(O)C(=O)Nc1ccc2c(C(F)(F)F)cc(=O)[nH]c2c1 | 289 to 291 | – | – | – | – | – | – | – | – | – | – | – |
| CC(=O)c1cccc(-c2ccc3[nH]c(=O)cc(C(F)(F)F)c3c2)c1 [Compound 735, 4-Trifluoromethyl-6-(3-acetylphenyl)-2(1H)-quinolinone] | – | 915 | > 10000 | na (na = not active (i.e. efficacy of <20 and potency of >10,000)) | 326 | 84 | – | – | – | – | – | – |
| O=c1cc(C(F)(F)F)c2cc(-c3cccc(F)c3F)ccc2[nH]1 [Compound 725, 6-(2,3-Difluoro)phenyl-4-trifluoromethyl-2(1H)-quinolinone] | – | 400 | > 10000 | na (na = not active (i.e. efficacy of <20 and potency of >10,000)) | 149 | 92 | > 10000 | 87% | 79 | > 1000 | – | – |
| CC1(C)OC(=S)Nc2ccc(C3=CCCCC3)cc21 [Compound 689, 6-(1-Cyclohexenyl)-1,4-dihydro-4,4-dimethyl-1,3-benzo[d]oxazin-2-thione] | – | 23 | 2700 | 105% | – | 47 | > 10000 | 89% | 40 | 132 | 35 | – |
| N#Cc1cc(F)cc(-c2ccc3[nH]c(=O)cc(C(F)(F)F)c3c2)c1 [Compound 731, 4-Trifluoromethyl-6-(3-fluoro-5-cyano)phenyl-2(1H)-quinolinone] | – | 154 | > 10000 | na (na = not active (i.e. efficacy of <20 and potency of >10,000)) | 64 | 89 | – | – | – | – | – | – |
| CCCC(C)N(CCC)c1ccc2[nH]c(=O)cc(C(F)(F)F)c2c1 (racemic) [Compound 251, (±)-6-(N-Propyl-N-1-methylbutyl)amino-4-trifluoromethyl-2(1H)-quinolinone] | – | 930 | > 10000 | na (na = not active (i.e. efficacy of <20 and potency of >10,000)) | 747 | 91 | – | – | – | – | – | – |
| CC(C)CN(CC(F)(F)F)c1cc2c(C(F)(F)F)cc(=O)[nH]c2cc1O [Compound 473, 6-(N-Isobutyl-N-2,2,2-trifluoroethyl)amino-7-hydroxy-4-trifluoromethyl-2(1H)-quinolinone] | – | 508 | > 10000 | na (na = not active (i.e. efficacy of <20 and potency of >10,000)) | 880 | 55 | – | – | – | – | – | – |
| CC1(C)OC(=S)Nc2ccc(C3=CC(=O)CCC3)cc21 [Compound 695, 6-(3-Oxo-1-)cyclohexenyl-1,4-dihydro-4,4-dimethyl-1,3-benzo[d]oxazin-2-thione] | – | 203 | > 10000 | na (na = not active (i.e. efficacy of <20 and potency of >10,000)) | – | 90 | – | – | – | – | 20 | – |
| CCN(CC(C)(C)C)c1ccc2[nH]c(=O)cc(C(F)(F)F)c2c1 [Compound 242, 6-(N-Ethyl-N-2,2-dimethylpropyl)amino-4-trifluoromethyl-2(1H)-quinolinone] | – | 70 | > 10000 | na (na = not active (i.e. efficacy of <20 and potency of >10,000)) | 200 | 95 | 2.8 | na (na = not active (i.e. efficacy of <20 and potency of >10,000)) | > 10000 | 32 | – | 66 |
| CC1(C)OC(=O)Nc2ccc(C3=CCCCC3)cc21 [Compound 667, 6-(1-Cyclohexenyl)-1,4-dihydro-4,4-dimethyl-1,3-benzo[d]oxazin-2-one] | – | 144 | > 10000 | na (na = not active (i.e. efficacy of <20 and potency of >10,000)) | – | 89 | > 10000 | 89% | 27 | 7.4 | 70 | – |
| O=c1cc(C(F)(F)F)c2cc(-c3cccc([N+](=O)[O-])c3)ccc2[nH]1 [Compound 727, 4-Trifluoromethyl-6-(3-nitro)phenyl-2(1H)-quinolinone] | – | 161 | > 10000 | na (na = not active (i.e. efficacy of <20 and potency of >10,000)) | 108 | 90 | – | – | – | – | – | – |
| CC1(C)OC(=S)Nc2ccc(C3=CC(O)CCC3)cc21 (racemic) [Compound 697, (±)-6-(3-Hydroxy-1-)cyclohexenyl-1,4-dihydro-4,4-dimethyl-1,3-benzo[d]oxazin-2-thione] | – | > 1000 | > 10000 | na (na = not active (i.e. efficacy of <20 and potency of >10,000)) | – | 58 | – | – | – | – | 316 | – |
| CC1(C)OC(=O)Nc2ccc(C3CCCCCC3)cc21 [Compound 671, 6-(1-Cycloheptyl)-1,4-dihydro-4,4-dimethyl-1,3-benzo[d]oxazin-2-one] | – | > 1000 | > 10000 | na (na = not active (i.e. efficacy of <20 and potency of >10,000)) | – | 62 | – | – | – | – | 200 | – |
